{"source": "EPA's CvTdb concentration-time database", "key": {"Rat [1]": {"system": "Rat", "experiment": "concentration in plasma after dosing", "conditions": "dosed: Fluorotelomer alcohol 8+2, 12 mg/kg, iv, Male, F344"}, "Rat [2]": {"system": "Rat", "experiment": "concentration in plasma after dosing", "conditions": "dosed: Fluorotelomer alcohol 8+2, 12 mg/kg, iv, Male, F344", "remark": "listed apart in the source"}, "Rat [3]": {"system": "Rat", "experiment": "concentration in brain after dosing", "conditions": "6 h; dosed: Fluorotelomer alcohol 8+2; 80 mg/kg; oral; Female; Harlan Sprague Dawley"}, "Rat [4]": {"system": "Rat", "experiment": "concentration in kidney after dosing", "conditions": "3 h; dosed: Fluorotelomer alcohol 8+2; 80 mg/kg; oral; Female; Harlan Sprague Dawley"}, "Rat [5]": {"system": "Rat", "experiment": "concentration in plasma after dosing", "conditions": "dosed: Fluorotelomer alcohol 8+2, 12 mg/kg, oral, Male, Harlan Sprague Dawley"}, "Rat [6]": {"system": "Rat", "experiment": "concentration in liver after dosing", "conditions": "12 h; dosed: Fluorotelomer alcohol 8+2; 80 mg/kg; oral; Female; Harlan Sprague Dawley"}, "Rat [7]": {"system": "Rat", "experiment": "concentration in liver after dosing", "conditions": "24 h; dosed: Perfluorodecanoic acid; 10 mg/kg; oral; Female; Harlan Sprague Dawley"}, "Rat [8]": {"system": "Rat", "experiment": "concentration in liver after dosing", "conditions": "3360 h; dosed: Perfluorodecanoic acid; 10 mg/kg; oral; Male; Harlan Sprague Dawley"}, "Rat [9]": {"system": "Rat", "experiment": "concentration in brain after dosing", "conditions": "24 h; dosed: Perfluorodecanoic acid; 10 mg/kg; oral; Female; Harlan Sprague Dawley"}, "Rat [10]": {"system": "Rat", "experiment": "concentration in plasma after dosing", "conditions": "dosed: Perfluorodecanoic acid, 2 mg/kg, iv, Male, F344"}, "Rat [11]": {"system": "Rat", "experiment": "concentration in kidney after dosing", "conditions": "24 h; dosed: Perfluorodecanoic acid; 10 mg/kg; oral; Female; Harlan Sprague Dawley"}, "Rat [12]": {"system": "Rat", "experiment": "concentration in liver after dosing", "conditions": "40 min; dosed: Bis 2-Chloroethoxy Methane; 20 mg/kg; iv; Male; F344"}, "Rat [13]": {"system": "Rat", "experiment": "concentration in thymus after dosing", "conditions": "1 h; dosed: Bis 2-Chloroethoxy Methane; 20 mg/kg; iv; Female; F344"}, "Rat [14]": {"system": "Rat", "experiment": "concentration in plasma after dosing", "conditions": "3 h; dosed: Bis 2-Chloroethoxy Methane; 40 mg/kg; iv; Male; Harlan Sprague Dawley"}, "Rat [15]": {"system": "Rat", "experiment": "concentration in heart after dosing", "conditions": "3 h; dosed: Bis 2-Chloroethoxy Methane; 20 mg/kg; iv; Female; F344"}, "Rat [16]": {"system": "Rat", "experiment": "concentration in thymus after dosing", "conditions": "4 h; dosed: Bis 2-Chloroethoxy Methane; 20 mg/kg; iv; Female; F344"}, "Rat [17]": {"system": "Rat", "experiment": "concentration in plasma after dosing", "conditions": "40 min; dosed: Bis 2-Chloroethoxy Methane; 20 mg/kg; iv; Female; F344"}, "Rat [18]": {"system": "Rat", "experiment": "concentration in liver after dosing", "conditions": "20 min; dosed: Bis 2-Chloroethoxy Methane; 20 mg/kg; iv; Female; F344"}, "Rat [19]": {"system": "Rat", "experiment": "concentration in thymus after dosing", "conditions": "3 h; dosed: Bis 2-Chloroethoxy Methane; 20 mg/kg; iv; Female; F344"}, "Rat [20]": {"system": "Rat", "experiment": "concentration in heart after dosing", "conditions": "20 min; dosed: Bis 2-Chloroethoxy Methane; 20 mg/kg; iv; Female; F344"}, "Rat [21]": {"system": "Rat", "experiment": "concentration in plasma after dosing", "conditions": "dosed: dichloroacetic acid, 100 mg/kg, oral, Male, F344"}, "Rat [22]": {"system": "Rat", "experiment": "concentration in plasma after dosing", "conditions": "dosed: dichloroacetic acid, 40 mg/kg, oral, Female, Harlan Sprague Dawley"}, "Rat [23]": {"system": "Rat", "experiment": "concentration in plasma after dosing", "conditions": "dosed: dichloroacetic acid, 100 mg/kg, oral, Male, F344", "remark": "listed apart in the source"}, "Rat [24]": {"system": "Rat", "experiment": "concentration in plasma after dosing", "conditions": "0.25 h; dosed: Wyeth-14643; 2.0 mg/kg; iv; Male; Sprague-Dawley"}, "Rat [25]": {"system": "Rat", "experiment": "concentration in plasma after dosing", "conditions": "0.5 h; dosed: Wyeth-14643; 5.0 mg/kg; oral; Male; Sprague-Dawley"}, "Rat [26]": {"system": "Rat", "experiment": "concentration in plasma after dosing", "conditions": "5 min; dosed: Wyeth-14643; 2.0 mg/kg; oral; Male; Sprague-Dawley"}, "Rat [27]": {"system": "Rat", "experiment": "concentration in thymus after dosing", "conditions": "5.333 h; dosed: Thiodiglycolic Acid; 20 mg/kg; iv; Female; Harlan Sprague Dawley"}, "Rat [28]": {"system": "Rat", "experiment": "concentration in thymus after dosing", "conditions": "3 h; dosed: Thiodiglycolic Acid; 20 mg/kg; iv; Male; Harlan Sprague Dawley"}, "Rat [29]": {"system": "Rat", "experiment": "concentration in thymus after dosing", "conditions": "2 h; dosed: Thiodiglycolic Acid; 20 mg/kg; iv; Female; Harlan Sprague Dawley"}, "Rat [30]": {"system": "Rat", "experiment": "concentration in plasma after dosing", "conditions": "3 h; dosed: Thiodiglycolic Acid; 20 mg/kg; iv; Male; Harlan Sprague Dawley"}, "Rat [31]": {"system": "Rat", "experiment": "concentration in heart after dosing", "conditions": "3 h; dosed: Thiodiglycolic Acid; 20 mg/kg; iv; Male; Harlan Sprague Dawley"}, "Rat [32]": {"system": "Rat", "experiment": "concentration in heart after dosing", "conditions": "10 min; dosed: Thiodiglycolic Acid; 20 mg/kg; iv; Male; F344"}, "Rat [33]": {"system": "Rat", "experiment": "concentration in plasma after dosing", "conditions": "40 min; dosed: Thiodiglycolic Acid; 20 mg/kg; iv; Female; Harlan Sprague Dawley"}, "Rat [34]": {"system": "Rat", "experiment": "concentration in plasma after dosing", "conditions": "0.25 h; dosed: Di-n-butyl phthalate; 100 mg/kg; oral; Male; Sprague-Dawley"}, "Rat [35]": {"system": "Rat", "experiment": "concentration in plasma after dosing", "conditions": "5 h; dosed: Di-n-butyl phthalate; 20 mg/kg; iv; Male; Sprague-Dawley"}, "Rat [36]": {"system": "Rat", "experiment": "concentration in plasma after dosing", "conditions": "1 h; dosed: Di-n-butyl phthalate; 50 mg/kg; oral; Male; Sprague-Dawley"}, "Rat [37]": {"system": "Rat", "experiment": "concentration in plasma after dosing", "conditions": "6 h; dosed: Di-n-butyl phthalate; 100 mg/kg; oral; Male; Sprague-Dawley"}, "Rat [38]": {"system": "Rat", "experiment": "concentration in plasma after dosing", "conditions": "10 h; dosed: Di-n-butyl phthalate; 100 mg/kg; oral; Male; Sprague-Dawley"}, "Rat [39]": {"system": "Rat", "experiment": "concentration in plasma after dosing", "conditions": "5 min; dosed: Di-n-butyl phthalate; 20 mg/kg; iv; Male; Sprague-Dawley"}}}
{"smiles": "OCCC(F)(F)C(F)(F)C(F)(F)C(F)(F)C(F)(F)C(F)(F)C(F)(F)C(F)(F)F", "note": "[Fluorotelomer alcohol 8+2]", "values": [{"measurement": "concentration in plasma", "setting": "Rat [1]; 0.75 h", "value": 756, "unit": "ng/mL"}, {"measurement": "concentration in plasma", "setting": "Rat [1]; 12 h", "value": 13.3, "unit": "ng/mL"}, {"measurement": "concentration in plasma", "setting": "Rat [2]; 0.5 h", "value": 1410, "unit": "ng/mL"}, {"measurement": "concentration in plasma", "setting": "Rat [2]; 9 h", "value": 26.1, "unit": "ng/mL"}, {"measurement": "concentration in brain", "setting": "Rat [3]", "value": 1090, "unit": "ng/g"}, {"measurement": "concentration in kidney", "setting": "Rat [4]", "value": 5170, "unit": "ng/g"}, {"measurement": "concentration in plasma", "setting": "Rat [5]; 0.75 h", "value": 318, "unit": "ng/mL"}, {"measurement": "concentration in plasma", "setting": "Rat [5]; 12 h", "value": 6.78, "unit": "ng/mL"}, {"measurement": "concentration in liver", "setting": "Rat [6]", "value": 1160, "unit": "ng/g"}]}
{"smiles": "O=C(O)C(F)(F)C(F)(F)C(F)(F)C(F)(F)C(F)(F)C(F)(F)C(F)(F)C(F)(F)C(F)(F)F", "note": "[Perfluorodecanoic acid]", "values": [{"measurement": "concentration in liver", "setting": "Rat [7]", "value": 139000, "unit": "ng/g"}, {"measurement": "concentration in liver", "setting": "Rat [8]", "value": 6930, "unit": "ng/g"}, {"measurement": "concentration in brain", "setting": "Rat [9]", "value": 1820, "unit": "ng/g"}, {"measurement": "concentration in plasma", "setting": "Rat [10]; 6 h", "value": 6240, "unit": "ng/mL"}, {"measurement": "concentration in plasma", "setting": "Rat [10]; 864 h", "value": 2140, "unit": "ng/mL"}, {"measurement": "concentration in kidney", "setting": "Rat [11]", "value": 57900, "unit": "ng/g"}]}
{"smiles": "ClCCOCOCCCl", "note": "[Bis 2-Chloroethoxy Methane]", "values": [{"measurement": "concentration in liver", "setting": "Rat [12]", "value": 4070, "unit": "ng/g"}, {"measurement": "concentration in thymus", "setting": "Rat [13]", "value": 2300, "unit": "ng/g"}, {"measurement": "concentration in plasma", "setting": "Rat [14]", "value": 287, "unit": "ng/mL"}, {"measurement": "concentration in heart", "setting": "Rat [15]", "value": 124, "unit": "ng/g"}, {"measurement": "concentration in thymus", "setting": "Rat [16]", "value": 108, "unit": "ng/g"}, {"measurement": "concentration in plasma", "setting": "Rat [17]", "value": 1410, "unit": "ng/mL"}, {"measurement": "concentration in liver", "setting": "Rat [18]", "value": 1330, "unit": "ng/g"}, {"measurement": "concentration in thymus", "setting": "Rat [19]", "value": 174, "unit": "ng/g"}, {"measurement": "concentration in heart", "setting": "Rat [20]", "value": 6800, "unit": "ng/g"}]}
{"smiles": "O=C(O)C(Cl)Cl", "note": "[dichloroacetic acid]", "values": [{"measurement": "concentration in plasma", "setting": "Rat [21]; 10 min", "value": 11900, "unit": "ng/mL"}, {"measurement": "concentration in plasma", "setting": "Rat [21]; 4 h", "value": 55600, "unit": "ng/mL"}, {"measurement": "concentration in plasma", "setting": "Rat [22]; 20 min", "value": 8110, "unit": "ng/mL"}, {"measurement": "concentration in plasma", "setting": "Rat [22]; 2 h", "value": 2680, "unit": "ng/mL"}, {"measurement": "concentration in plasma", "setting": "Rat [23]; 0.25 h", "value": 15500, "unit": "ng/mL"}, {"measurement": "concentration in plasma", "setting": "Rat [23]; 6 h", "value": 29500, "unit": "ng/mL"}]}
{"smiles": "Cc1cccc(Nc2cc(Cl)nc(SCC(=O)O)n2)c1C", "values": [{"measurement": "concentration in plasma", "setting": "Rat [24]", "value": 9460, "unit": "ng/mL"}, {"measurement": "concentration in plasma", "setting": "Rat [25]", "value": 3830, "unit": "ng/mL"}, {"measurement": "concentration in plasma", "setting": "Rat [26]", "value": 401, "unit": "ng/mL"}]}
{"smiles": "O=C(O)CSCC(=O)O", "note": "[Thiodiglycolic Acid]", "values": [{"measurement": "concentration in thymus", "setting": "Rat [27]", "value": 372, "unit": "ng/g"}, {"measurement": "concentration in thymus", "setting": "Rat [28]", "value": 1430, "unit": "ng/g"}, {"measurement": "concentration in thymus", "setting": "Rat [29]", "value": 1910, "unit": "ng/g"}, {"measurement": "concentration in plasma", "setting": "Rat [30]", "value": 696, "unit": "ng/mL"}, {"measurement": "concentration in heart", "setting": "Rat [31]", "value": 1040, "unit": "ng/g"}, {"measurement": "concentration in heart", "setting": "Rat [32]", "value": 8210, "unit": "ng/g"}, {"measurement": "concentration in plasma", "setting": "Rat [33]", "value": 4780, "unit": "ng/mL"}]}
{"smiles": "CCCCOC(=O)c1ccccc1C(=O)O", "note": "[Mono-n-butyl phthalate]", "values": [{"measurement": "concentration in plasma", "setting": "Rat [34]", "value": 13200, "unit": "ng/mL"}, {"measurement": "concentration in plasma", "setting": "Rat [35]", "value": 600, "unit": "ng/mL"}, {"measurement": "concentration in plasma", "setting": "Rat [36]", "value": 8650, "unit": "ng/mL"}, {"measurement": "concentration in plasma", "setting": "Rat [37]", "value": 16900, "unit": "ng/mL"}, {"measurement": "concentration in plasma", "setting": "Rat [38]", "value": 1170, "unit": "ng/mL"}, {"measurement": "concentration in plasma", "setting": "Rat [39]", "value": 22800, "unit": "ng/mL"}]}
